How the values were obtained:
[1] = system: Panc-1 human pancreatic cancer cells; experiment: Cell growth (IncuCyte confluence) in Panc-1 cells
Source text: Values are mean±SD, n=4, each experiment completed in technical quadruplicate.
To investigate tumor cell selectivity, human pancreatic nestin-expressing cells (HPNE) were used as a surrogate for normal epithelial cells, and human pancreatic stellate cells (HPSC) were studied as a non-transformed stromal cell type. Cells were exposed to escalating concentrations of MMe, pCF3-MMe, mCF3-MMe, and pMeO-MMe (FIGS. 2A-2D) and percent confluency measured as a surrogate for daily proliferation.
Cells were plated to standard 96-well tissue culture plates at 4,000 cells/well. Mitochondria-targeted compounds were diluted in full serum medium and added to wells. Cell confluence was measured using an IncuCyte S3 every 2 hours at 10× magnification. […] Image analyses were conducted using the IncuCyte S3 imaging software system.

[2] = system: diabetic patients; settings: cited from earlier work
[3] = system: HPNE and HPSC non-transformed cells; experiment: Cell growth (confluence) of normal non-transformed cells; format: cell-based, human
Experimental: To test the off-target effects of the refined MMe analogs on normal non-transformed cells, the growth of HPNE cells (FIGS. 11A, 11D, and 11G), used as a surrogate for normal pancreatic ductal epithelium, or normal stromal HPSC cells (FIGS. 11B, 11E, and 11H) were measured in increasing concentrations of MMe, pCF3-MMe, or mCF3-MMe and compared to the vehicle control.
(§1) Murine pancreatic cancer cells KPC1242 (David Tuveson, Cold Spring Harbor), human pancreatic cancer cells, Panc-1 (ATCC: CRL-1469), human breast cancer cells MDA-MB-231 (ATCC: CRM-HTB-26), and human pancreatic stellate cells HPSC (Rosa F. Hwang, MD Anderson cancer) were all cultured in DMEM (Gibco ThermoFisher Scientific, Waltham, MA, Cat #11965084) containing 10% v/v fetal bovine serum (Omega Scientific, Inc., Tarzana, CA, Cat #FB-12). Human pancreatic cancer cells AsPC-1 (ATCC: CRL-1682), human ovarian cancer cells OVCAR-8 (NIH: CVCL-1629), and human ovarian cancer cells OVCAR-4 (NIH: CVCL-1627) were all cultured in DMEM (Gibco, Cat #22400089) containing 10% v/v fetal bovine serum (Omega Scientific). Human colon cancer cells HCT-116 (ATCC: CCL-247) were cultured in McCoy's 5A Modified Medium (Gibco, Cat #16600082) containing 10% v/v fetal bovine serum (Omega Scientific). Human pancreatic duct epithelial cells HPNE (ATCC: CRL-4023) were cultured in DMEM and 200 mM L-Glutamine and 7.5% w/v NaCO3 further supplemented with 15% v/v fetal bovine serum, M3-Base A (Incell, San Antonio, TX), 1M D-Glucose (Gibco Cat #J60067.EQE), 100 μg/mL human EGF (Gibco Cat #PHG0313) and 10 mg/mL puromycin (ThermoFisher, Cat #A1113802).

[4] = system: KPC1242, Panc-1, AsPC-1, HCT-116, MDA-MB-231, OVCAR-4, OVCAR-8 cancer cell lines; experiment: Cell growth (IncuCyte confluence) in cancer cell lines; format: cell-based, murine, human; settings: increasing concentrations 0.1 μM-10 μM, each of the cancer cells
Source text: as §1

COc1ccc([P+](CCCCCCCCCCNC(=N)NC(=N)N)(c2ccc(OC)cc2)c2ccc(OC)cc2)cc1 [pMeO-MMe]
confluence ([1]; human pancreatic cancer cells): concentration-dependent decrease in confluence
efficacy in pancreas cancer cells ([1]; in contrast to the fluorinated compound): significantly lower efficacy

CN(C)C(=N)N=C(N)N [Metformin]
tolerated daily doses [2]: 2-3 grams

N=C(N)NC(=N)NCCCCCCCCCC[P+](c1cccc(C(F)(F)F)c1)(c1cccc(C(F)(F)F)c1)c1cccc(C(F)(F)F)c1.[Br-] [mCF3-MMe, (10-(3-carbamimidoylguanidino)decyl)tris(3-(trifluoromethyl)phenyl)phosphonium bromide]
reduction in toxicity to normal cells compared to MMe [3]: ~10 fold
sensitivity of normal non-transformed cells compared to cancer cells ([3]; HPNE, HPSC versus cancer cells): more than a log less sensitive
cell confluency [4]: decreased in a concentration-dependent manner
